Read-outs that look alike come from different tables or passages of the source.
Legend:
Parameters in all cases: species or system AML cell lines (8); Primary HTS, single concentration about 10 uM, Cell Titer Glo viability; log10 luminescence, per cent inhibition relative to cycloheximide control
Conditions in all cases: 72 h, inhibitor
CHRF288-11 = test system: CHRF288-11
CMK = test system: CMK
CMS = test system: CMS
M07e = test system: M07e
ML-2 = test system: ML-2
MOLM-13 = test system: MOLM-13
MV4-11 = test system: MV4-11
U937 = test system: U937
[1] = relative to cycloheximide control, log10 luminescence

SMILES	CHRF288-11 %inh (CHRF288-11; [1]) [%]	CMK %inh (CMK; [1]) [%]	CMS %inh (CMS; [1]) [%]	M07e %inh (M07e; [1]) [%]	ML-2 %inh (ML-2; [1]) [%]	MOLM-13 %inh (MOLM-13; [1]) [%]	MV4-11 %inh (MV4-11; [1]) [%]	U937 %inh (U937; [1]) [%]	CHRF288-11 %inh (CHRF288-11; 10 µM) [%]	CMK %inh (CMK; 10 µM) [%]	CMS %inh (CMS; 10 µM) [%]	M07e %inh (M07e; 10 µM) [%]	ML-2 %inh (ML-2; 10 µM) [%]	MOLM-13 %inh (MOLM-13; 10 µM) [%]	MV4-11 %inh (MV4-11; 10 µM) [%]	U937 %inh (U937; 10 µM) [%]
COc1cc2c(cc1Nc1nc(Nc3cccc(F)c3C(N)=O)c3cc[nH]c3n1)N(C(=O)CN1CCN(C(C)C)CC1)CC2 [SJ000573284-1, U23773/22/1]	156	28.42	4.776	-2.07	60.74	110	-1.565	-4.151	–	–	–	–	–	–	–	–
COC(=O)Nc1nc2ccc(Oc3ccc(NC(=O)Nc4cc(C(F)(F)F)ccc4F)cc3)cc2s1 [SJ000573286-1, T277/77/2]	2.804	4.078	-2.124	9.62	3.773	27.47	23.01	-3.236	–	–	–	–	–	–	–	–
Nc1nc(-c2cccc(Cl)c2)c(-c2ccc3ncccc3n2)s1 [SJ000573287-1, FTTA/246/163/2]	1.906	-4.613	0.5039	1.682	2.244	-0.7857	-3.034	-2.159	–	–	–	–	–	–	–	–
Cc1nnc(-c2cccc(-c3ccc(C(=O)NCC4CC4)cc3)c2)o1 [SJ000573288-1, N5058-19-3]	-4.251	3.578	-1.146	0.8786	2.007	2.072	-0.4477	-1.478	–	–	–	–	–	–	–	–
CN(C)CCOc1ccc(-c2nc(-c3ccncc3)c(-c3ccc4c(c3)CC/C4=N\O)[nH]2)cc1 [SJ000573289-1, MM206071-092A1 | SB590885]	9.844	-1.288	1.753	3.647	-1.225	11.69	2.418	1.485	–	–	–	–	–	–	–	–
COc1ccc(COc2ccc(Cc3cnc(N)nc3N)cc2OC)cc1 [SJ000573290-1, U22490/41/5 | GW2580 | CFMS RECEPTOR TYROSINE KINASE INHIBITOR | CSF-1 RECEPTOR INHIBITOR | GW-2580 | GW2580]	2.429	9.776	-2.221	0.1702	2.578	5.043	1.548	5.457	–	–	–	–	–	–	–	–
CCS(=O)(=O)c1ccc(OC)c(Nc2ncc(-c3ccccc3Cl)o2)c1 [SJ000573291-1, U15747/47/1]	-4.64	-1.56	-1.399	-1.838	-1.239	-0.8597	15.16	1.267	–	–	–	–	–	–	–	–
COc1cc2ncn(-c3cc(OCc4ccccc4C(F)(F)F)c(C(C)=O)s3)c2cc1OC [SJ000573292-1, U22436/134/1]	-3.203	-1.073	0.7881	-3.084	-2.426	-1.507	-4.181	-1.322	–	–	–	–	–	–	–	–
Cc1cccc(-c2n[nH]cc2-c2ccc3ncccc3n2)n1 [SJ000573293-1, FFJG/252/112/1 | REPSOX]	4.75	1.842	2.179	-1.053	2.229	-2.402	1.439	6.099	–	–	–	–	–	–	–	–
Nc1nc(-c2ccc3c(c2)C(=Cc2cc(Br)c(O)c(Br)c2)C(=O)N3)cs1 [SJ000573294-1, U11298/118/1]	13.11	-5.127	1.564	2.045	0.7137	-2.176	-2.964	-1.497	–	–	–	–	–	–	–	–
COc1cc2ncn(-c3cc(OCc4ccccc4S(C)(=O)=O)c(C#N)s3)c2cc1OC [SJ000573295-1, U24235/171/40 | IKK-3 INHIBITOR IX | CAY10576]	3.431	-4.233	-0.09194	3.197	2.593	-1.258	0.8968	1.496	–	–	–	–	–	–	–	–
COc1ccc(-c2oc3ncnc(N)c3c2-c2ccc(NC(=O)Nc3cc(C(F)(F)F)ccc3F)cc2)cc1 [SJ000573296-1, T299/60/1]	-2.7	1.218	0.08626	-1.472	0.8185	23.97	5.923	-2.62	–	–	–	–	–	–	–	–
CCCN1CCC(Oc2cc(Nc3nc(Nc4cccc(F)c4C(N)=O)c4cc[nH]c4n3)c(OC)cc2Cl)CC1 [SJ000573297-1, U23772/200/1]	4.97	2.381	-0.1818	3.715	2.245	2.944	-2.06	0.7849	–	–	–	–	–	–	–	–
COc1cc(N2CCN(C(C)C)CC2)ccc1Nc1nc(Nc2ccc(F)cc2C(N)=O)c2cc[nH]c2n1 [SJ000573298-1, U22490/47/4]	127	61.83	47.53	44.9	34.55	113.4	68.67	43.61	–	–	–	–	–	–	–	–
COC(=O)Nc1nc2cc(Oc3cccc(NC(=O)Nc4cc(C(F)(F)F)ccc4F)c3)ccc2[nH]1 [SJ000573299-1, T261/2/3]	-6.517	4.931	-1.053	-5.089	-3.985	2.873	1.052	-3.556	–	–	–	–	–	–	–	–
COc1cc(N2CCN(C(C)C)CC2)ccc1Nc1nc(Nc2cccc3ncccc23)c2cc[nH]c2n1 [SJ000573300-1, U24088/12/1]	47.23	79.69	0.4893	3.774	8.95	33.94	11.79	16.14	–	–	–	–	–	–	–	–
COc1cc(N2CCN(C(C)C)CC2)ccc1Nc1nc(Nc2ccc(F)cc2C(=O)NC[C@@H](O)CO)c2cc[nH]c2n1 [SJ000573301-1, U23662/84/1]	7.394	-2.061	-0.165	18.85	23.23	61.15	49.16	47.45	–	–	–	–	–	–	–	–
COc1cc(N2CCN(C(C)C)CC2)ccc1Nc1nc(Nc2cccc(F)c2C(=O)O)c2cc[nH]c2n1 [SJ000573302-1, U24644/141/1]	2.245	-4.539	-1.742	1.407	1.383	-2.196	-1.676	-3.308	–	–	–	–	–	–	–	–
NS(=O)(=O)c1ccc(Nc2ncc(-c3ccccc3)o2)cc1 [SJ000573303-1, U14961/32/1]	–	–	–	–	–	–	–	–	3.992	30.97	6.689	5.73	4.386	74.24	64.71	6.622
CN1CCN(CCCNc2nc3ccc(Oc4ccc(NC(=O)Nc5cc(C(F)(F)F)ccc5F)cc4)cc3[nH]2)CC1 [SJ000573304-1, T278/35/2]	-0.361	2.938	2.836	5.692	1.341	79.64	57.09	2.101	–	–	–	–	–	–	–	–
COc1cccc(COc2cc(-n3cnc4ccccc43)sc2C(N)=O)c1 [SJ000573305-1, U17845/44/3]	7.099	1.494	2.005	2.73	3.033	4.701	0.1016	5.488	–	–	–	–	–	–	–	–
CNC(=O)c1sc(-n2cnc3cc(OC)c(OC)cc32)cc1OCc1ccccc1C(F)(F)F [SJ000573306-1, U22436/130/1]	8.101	19.06	0.3871	-3.893	3.023	15.4	7.836	5.347	–	–	–	–	–	–	–	–

Source: article PMC6522510 (Nature Communications, 2019)
